Test results published in PMC3849818 (Journal of medicinal chemistry, 2013).

What was measured:
OX1 = settings: read-out: IC50 OX1; cited from earlier work
rats [1] = assay: Conditioned place preference; format: in vivo, Sprague-Dawley rats
[2] = 2-methylbenzoxazole undergoes ring opening under acidic conditions; cited from earlier work
OX2 = settings: read-out: IC50 OX2; Actelion high throughput screening hit; cited from earlier work
OX2 receptor = target: T1, OX2 receptor (Homo sapiens, UniProt O43614); assay: OX2 calcium mobilization functional assay; format: cell-based
T1 sequence (O43614 1-444): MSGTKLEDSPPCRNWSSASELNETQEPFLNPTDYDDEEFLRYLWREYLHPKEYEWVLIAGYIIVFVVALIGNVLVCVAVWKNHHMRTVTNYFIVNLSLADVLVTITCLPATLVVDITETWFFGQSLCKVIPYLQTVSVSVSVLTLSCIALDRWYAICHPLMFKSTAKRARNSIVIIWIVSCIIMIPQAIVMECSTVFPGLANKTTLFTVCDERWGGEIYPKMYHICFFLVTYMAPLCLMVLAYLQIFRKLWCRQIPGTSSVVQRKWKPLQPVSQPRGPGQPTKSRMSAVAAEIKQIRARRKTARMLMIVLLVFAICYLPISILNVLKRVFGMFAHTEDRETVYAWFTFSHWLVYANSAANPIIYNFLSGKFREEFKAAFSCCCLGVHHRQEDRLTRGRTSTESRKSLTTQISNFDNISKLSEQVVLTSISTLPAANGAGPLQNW

orexin 1 (OX1) receptor = target: T2, orexin 1 (OX1) receptor (Homo sapiens, UniProt O43613); assay: OX1 calcium mobilization functional assay; format: cell-based; settings: for OX2/OX1: ratio of Ke values
T2 sequence (O43613 1-425): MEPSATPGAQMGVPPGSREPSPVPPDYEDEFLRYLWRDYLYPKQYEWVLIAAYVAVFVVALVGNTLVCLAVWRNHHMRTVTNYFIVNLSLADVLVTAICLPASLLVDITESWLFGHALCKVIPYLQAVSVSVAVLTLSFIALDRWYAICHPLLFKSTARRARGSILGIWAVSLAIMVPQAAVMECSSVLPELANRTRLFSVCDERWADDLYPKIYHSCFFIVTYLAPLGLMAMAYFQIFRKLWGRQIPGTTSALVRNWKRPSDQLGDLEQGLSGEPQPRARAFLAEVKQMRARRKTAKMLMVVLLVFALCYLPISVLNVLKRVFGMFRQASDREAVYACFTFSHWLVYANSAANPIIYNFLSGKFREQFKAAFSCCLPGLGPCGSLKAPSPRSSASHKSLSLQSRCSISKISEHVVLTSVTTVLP

rats [3] = assay: Drug discrimination assay; format: in vivo; settings: 10 min pretreatment, data not shown

| Structure (SMILES) | Kd (OX2 receptor) [µM] | OX2/OX1 (orexin 1 (OX1) receptor) | other results |
| --- | --- | --- | --- |
| COc1ccc(C[C@H]2c3cc(OC)c(OC)cc3CCN2[C@@H](C(=O)NC(C)C)c2ccccc2)cc1OC [ACT-335827, reference compound] | – | – | IC50 (OX1): 0.006 µM |
| COC(=O)[C@H]1[C@@H](OC(=O)c2ccccc2)C[C@@H]2CC[C@H]1N2C [Cocaine, reference compound] | – | – | CPP produced by drug alone (rats [1]; 10 mg/kg i.p., n=8-9): induced robust and significant CPP |
| Cc1nc2ccc(NC(=O)Nc3ccnc4cccnc34)cc2o1.Cl [Compound 1] | – | – | hydrolytic stability [2]: hydrolytic instability |
| COc1ccc(CC2c3cc(OC)c(OC)cc3CCN2CC(=O)NCc2ccccc2)cc1OC (centres unmarked) [Compound 6, N-benzyl-2-{1-[(3,4-dimethoxyphenyl)methyl]-6,7-dimethoxy-1,2,3,4-tetrahydroisoquinolin-2-yl}acetamide] | > 10 | – | IC50 (OX2): 8.1 µM |
| COc1ccc(CC2c3cc(OCC(F)(F)F)c(OC)cc3CCN2CC(=O)NCc2ccccc2)cc1OC (centres unmarked) [Compound 28, N-benzyl-2-{1-[(3,4-dimethoxyphenyl)methyl]-6-methoxy-7-(2,2,2-trifluoroethoxy)-1,2,3,4-tetrahydroisoquinolin-2-yl}acetamide] | > 10 | >1060 | selectivity over the OX2 receptor (orexin 1 (OX1) receptor): over 1000 fold |
| COc1ccc(CC2c3cc(OC)c(OC)cc3CCN2CC(=O)N(C)Cc2ccccc2)cc1OC (centres unmarked) [Compound 39, N-benzyl-2-{1-[(3,4-dimethoxyphenyl)methyl]-6,7-dimethoxy-1,2,3,4-tetrahydroisoquinolin-2-yl}-N-methylacetamide] | > 10 | >4.8 | – |
| COc1ccc(CC2c3cc(OC)c(OC)cc3CCN2CC(=O)N[C@@H](C)c2ccccc2)cc1OC (stereo partly drawn) [Compound 49, 2-{1-[(3,4-dimethoxyphenyl)methyl]-6,7-dimethoxy-1,2,3,4-tetrahydroisoquinolin-2-yl}-N-[(1S)-1-phenylethyl]acetamide] | – | – | OX1 activity in words (orexin 1 (OX1) receptor; at 10 μM): inactive; OX2 activity in words (OX2 receptor; at 10 μM): inactive |
| COc1ccc(CC2c3cc(OC)c(OC)cc3CCN2CC(=O)NCc2ccccn2)cc1OC (centres unmarked) [Compound 53, 2-{1-[(3,4-dimethoxyphenyl)methyl]-6,7-dimethoxy-1,2,3,4-tetrahydroisoquinolin-2-yl}-N-(pyridin-2-ylmethyl)acetamide] | > 10 | >38.3 | – |
| COc1ccc(CC2c3cc(OC)c(OC)cc3CCN2CC(=O)NCc2cccnc2)cc1OC (centres unmarked) [Compound 54, 2-{1-[(3,4-dimethoxyphenyl)methyl]-6,7-dimethoxy-1,2,3,4-tetrahydroisoquinolin-2-yl}-N-(pyridin-3-ylmethyl)acetamide] | > 10 | >65.8 | – |
| COc1ccc(CC2c3cc(OC)c(OC)cc3CCN2CC(=O)NCc2ccc(N(C)C)cc2)cc1OC (centres unmarked) [Compound 56, 2-{1-[(3,4-dimethoxyphenyl)methyl]-6,7-dimethoxy-1,2,3,4-tetrahydroisoquinolin-2-yl}-N-{[4-(dimethylamino)phenyl]methyl}acetamide] | > 10 | >3.1 | – |
| CCCCCC(=O)Nc1ccc(CNC(=O)CN2CCc3cc(OC)c(OC)cc3C2Cc2ccc(OC)c(OC)c2)cc1 (centres unmarked) [Compound 58, N-{4-[(2-{1-[(3,4-dimethoxyphenyl)methyl]-6,7-dimethoxy-1,2,3,4-tetrahydroisoquinolin-2-yl}acetamido)methyl]phenyl}hexanamide] | 3.79 ± 0.67 | <0.4 | – |
| CCCOc1cc2c(cc1OC)CCN(CC(=O)NCc1ccccn1)C2Cc1ccc(OC)c(OC)c1 (centres unmarked) [Compound 69, 2-{1-[(3,4-dimethoxyphenyl)methyl]-6-methoxy-7-propoxy-1,2,3,4-tetrahydroisoquinolin-2-yl}-N-(pyridin-2-ylmethyl)acetamide] | > 10 | >485 | – |
| CCCOc1cc2c(cc1OC)CCN(CC(=O)NCc1cccnc1)C2Cc1ccc(OC)c(OC)c1 (centres unmarked) [Compound 70, 2-{1-[(3,4-dimethoxyphenyl)methyl]-6-methoxy-7-propoxy-1,2,3,4-tetrahydroisoquinolin-2-yl}-N-(pyridin-3-ylmethyl)acetamide] | > 10 | >239 | – |
| COc1ccc(CC2c3cc(OCC(F)(F)F)c(OC)cc3CCN2CC(=O)NCc2ccccn2)cc1OC (centres unmarked) [Compound 71, 2-{1-[(3,4-dimethoxyphenyl)methyl]-6-methoxy-7-(2,2,2-trifluoroethoxy)-1,2,3,4-tetrahydroisoquinolin-2-yl}-N-(pyridin-2-ylmethyl)acetamide] | > 10 | >444 | – |
| COc1ccc(CC2c3cc(OCC(F)(F)F)c(OC)cc3CCN2CC(=O)NCc2cccnc2)cc1OC (centres unmarked) [Compound 72, 2-{1-[(3,4-dimethoxyphenyl)methyl]-6-methoxy-7-(2,2,2-trifluoroethoxy)-1,2,3,4-tetrahydroisoquinolin-2-yl}-N-(pyridin-3-ylmethyl)acetamide] | > 10 | >1180 | effect on development of place preference induced by cocaine (rats [1]; 20 mg/kg i.p. 10 min before cocaine 10 mg/kg, P < 0.05 vs cocaine): significantly attenuated; CPP produced by compound alone (rats [1]; 20 mg/kg i.p., n=8-9): did not produce CPP or place aversion; behavioral activity in drug discrimination (rats [3]): behaviorally active |
| CCOc1cc2c(cc1OC)CCN(CC(=O)NCc1ccccn1)C2Cc1ccc(OC)c(OC)c1 (centres unmarked) [Compound 73, 2-{1-[(3,4-dimethoxyphenyl)methyl]-7-ethoxy-6-methoxy-1,2,3,4-tetrahydroisoquinolin-2-yl}-N-(pyridin-2-ylmethyl)acetamide] | > 10 | >114 | – |
| CCOc1cc2c(cc1OC)CCN(CC(=O)NCc1cccnc1)C2Cc1ccc(OC)c(OC)c1 (centres unmarked) [Compound 74, 2-{1-[(3,4-dimethoxyphenyl)methyl]-7-ethoxy-6-methoxy-1,2,3,4-tetrahydroisoquinolin-2-yl}-N-(pyridin-3-ylmethyl)acetamide] | > 10 | >637 | – |
